Our source for the IC50 values is patent US9828368B2 (MERCK SHARP & DOHME CORP., priority 2013, dated 2017).

One test concerns the target human orexin-2 receptor (Homo sapiens (Human), UniProt O43614). Nature of the test: FLIPR Ca2+ flux assay, hOX2R. Particulars: CHO cells expressing human orexin-2 receptor; agonist 70 pM Ala-6,12 orexin-A. It is filed as cell-based. The procedure: In a typical experiment the OX1 and OX2 receptor antagonistic activity of the compounds of the present invention was determined in accordance with the following experimental method. For intracellular calcium measurements, Chinese hamster ovary (CHO) cells expressing the rat orexin-1 receptor or the human orexin-2 receptor, are grown in Iscove's modified DMEM containing 2 mM L-glutamine, […], 1% hypoxanthine-thymidine supplement, 100 U/ml penicillin, 100 μg/ml streptomycin and 10% heat-inactivated fetal calf serum (FCS). The cells are seeded at 20,000 cells/well into Becton-Dickinson black 384-well clear bottom sterile plates coated with poly-D-lysine. All reagents were from GIBCO-Invitrogen Corp. The seeded plates are incubated overnight at 37° C. and 5% CO2. Ala-6,12 human orexin-A as the agonist is prepared as a 1 mM stock solution in 1% bovine serum albumin (BSA) and diluted in assay buffer (HBSS containing 20 mM HEPES, 0.1% BSA and 2.5 mM probenecid, pH7.4) for use in the assay at a final concentration of 70 pM. Test compounds are prepared as 10 mM stock solution in DMSO, then diluted in 384-well plates, first in DMSO, then assay buffer. On the day of the assay, cells are washed 3 times with 100 μl assay buffer and then incubated for 60 min (37° C., 5% CO2) in 60 μl assay buffer containing 1 μM Fluo-4AM ester, 0.02% pluronic acid, and 1% BSA. The dye loading solution is then aspirated and cells are washed 3 times with 100 μl assay buffer. 30 μl of that same buffer is left in each well. Within the Fluorescent Imaging Plate Reader (FLIPR, Molecular Devices), test compounds are added to the plate in a volume of 25 μl, incubated for 5 min and finally 25 μl of agonist is added. Fluorescence is measured for each well at 1 second intervals for 5 minutes and the height of each fluorescence peak is compared to the height of the fluorescence peak induced by 70 pM Ala-6,12 orexin-A with buffer in place of antagonist. […] The intrinsic orexin receptor antagonist activity of a compound which may be used in the present invention may be determined by these assays.
A general note: Calcium flux is commonly read through the fluorescence of an indicator in the cells.

A further test deals with hOX1R (Homo sapiens, UniProt O43613). Nature of the test: FLIPR Ca2+ flux assay, hOX1R. It is filed as cell-based.
Setting [1] is: CHO cells, agonist 70 pM Ala-6,12 orexin-A, rat orexin-1 receptor, read-out: hOX1R FLIPR IC50.

Where two headings read alike, the source gives them in different places.

Sequence of human orexin-2 receptor (O43614 whole entry): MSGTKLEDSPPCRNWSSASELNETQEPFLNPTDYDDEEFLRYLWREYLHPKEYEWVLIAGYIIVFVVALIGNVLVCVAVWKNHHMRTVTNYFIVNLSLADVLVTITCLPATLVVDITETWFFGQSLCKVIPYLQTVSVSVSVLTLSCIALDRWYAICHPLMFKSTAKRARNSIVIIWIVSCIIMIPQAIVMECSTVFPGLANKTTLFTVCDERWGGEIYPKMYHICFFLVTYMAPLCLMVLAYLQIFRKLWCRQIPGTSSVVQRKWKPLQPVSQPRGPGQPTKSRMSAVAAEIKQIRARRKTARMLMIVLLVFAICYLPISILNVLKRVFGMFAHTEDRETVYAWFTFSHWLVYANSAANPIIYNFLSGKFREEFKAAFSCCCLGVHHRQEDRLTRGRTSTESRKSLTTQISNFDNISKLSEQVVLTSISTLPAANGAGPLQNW

For the compound `CC(O)c1nc([C@@H]2CC[C@@H](C)N(C(=O)c3ccccc3-n3nccn3)C2)oc1-c1ccccc1` (single isomer, unassigned) [Example 64], the 50% inhibitory concentration (IC50) – broadly, the concentration that gives 50% inhibition – at human orexin-2 receptor was 0.076 µM; on hOX1R (setting [1]), 0.136 µM. On the same counts, the results for `CC(O)c1nc([C@@H]2CC[C@@H](C)N(C(=O)c3ccccc3-n3nccn3)C2)oc1-c1ccccc1` (single isomer, unassigned) [Example 65] are 0.13 µM and 0.155 µM. As for `CCC(C)(O)c1nc([C@@H]2CC[C@@H](C)N(C(=O)c3ccsc3-n3nccn3)C2)oc1C` (stereo in doubt) [Example 48, (2-(2H-1,2,3-Triazol-2-yl)thiophen-3-yl)((2R,5R)-5-(4-((S)-2-hydroxybutan-2-yl)-5-methyloxazol-2-yl)-2-methylpiperidin-1-yl)methanone], on hOX1R (setting [1]), the IC50 amounted to 1.81 µM. For the compound `C[C@@H]1CC[C@@H](c2nc(Br)co2)CN1C(=O)c1ccccc1-n1nccn1` [Example 1, (2-(2H-1,2,3-Triazol-2-yl)phenyl)((2R,5R)-5-(4-bromooxazol-2-yl)-2-methylpiperidin-1-yl)methanone], the half-inhibitory concentration (IC50) on human orexin-2 receptor was 0.138 µM; against hOX1R, roughly 7.9 µM.

Regarding `COC(=O)C1CC1c1coc([C@@H]2CC[C@@H](C)N(C(=O)c3ccccc3-n3nccn3)C2)n1` (stereo partly drawn) [Example 2, Methyl 2-(2-((3R,6R)-1-(2-(2H-1,2,3-triazol-2-yl)benzoyl)-6-methylpiperidin-3-yl)oxazol-4-yl)cyclopropanecarboxylate], the half-maximal inhibitory concentration (IC50) came out at 0.049 µM at human orexin-2 receptor and 3 µM at hOX1R (setting [1]). As for `C[C@@H]1CC[C@@H](c2nc(C3CC3)co2)CN1C(=O)c1ccccc1-n1nccn1` [Example 4, (2-(2H-1,2,3-Triazol-2-yl)phenyl)((2R,5R)-5-(4-cyclopropyloxazol-2-yl)-2-methylpiperidin-1-yl)methanone], the IC50 was determined as 0.047 µM at human orexin-2 receptor and 0.7 µM at hOX1R (setting [1]).

Take `C[C@@H]1CC[C@@H](c2nc(-c3ccccc3CO)co2)CN1C(=O)c1ccccc1-n1nccn1` [Example 5, (2-(2H-1,2,3-Triazol-2-yl)phenyl)((2R,5R)-5-(4-(2-(hydroxymethyl)phenyl)oxazol-2-yl)-2-methylpiperidin-l-yl)methanone]: the results for the IC50 on human orexin-2 receptor and at hOX1R (setting [1]) were 0.03 µM and 0.046 µM, respectively.

For `C[C@@H]1CC[C@@H](c2nc(-c3cccc(F)n3)co2)CN1C(=O)c1ccccc1-n1nccn1` [Example 6, (2-(2H-1,2,3-Triazol-2-yl)phenyl)((2R, 5R)-5-(4-(6-fluoropyridin-2-yl)oxazol-2-yl)-2-methylpiperidin-1-yl)methanone], the IC50 on human orexin-2 receptor came to 0.15 µM; on hOX1R (setting [1]), 0.67 µM. `Cc1cccc(-c2coc([C@@H]3CC[C@@H](C)N(C(=O)c4ccccc4-n4nccn4)C3)n2)c1` [Example 7, (2-(2H-1,2,3-Triazol-2-yl)phenyl)((2R,5R)-2-methyl-5-(4-(m-tolyl)oxazol-2-yl)piperidin-1-yl)methanone]: the 50% inhibitory concentration (IC50) on human orexin-2 receptor came out at 0.41 µM; at hOX1R (setting [1]) it was 0.26 µM. The corresponding values for `C[C@@H]1CC[C@@H](c2nc(C(C)(C)O)co2)CN1C(=O)c1ccccc1-n1nccn1` [Example 10, (2-(2H-1,2,3-Triazol-2-yl)phenyl)((2R,5R)-5-(4-(2-hydroxypropan-2-yl)oxazol-2-yl)-2-methylpiperidin-1-yl)methanone] are 0.059 µM and 2.7 µM. For the compound `C[C@@H]1CC[C@@H](c2nc(C#N)c(Br)o2)CN1C(=O)c1ccccc1-n1nccn1` [Example 11, 2-((3R,6R)-1-(2-(2H-1,2,3-Triazol-2-yl)benzoyl)-6-methylpiperidin-3-yl)-5-bromooxazole-4-carbonitrile], the IC50 on human orexin-2 receptor was 0.35 µM; on hOX1R (setting [1]), greater than 10 µM. On the same counts, the results for `COC(=O)c1nc([C@@H]2CC[C@@H](C)N(C(=O)c3ccccc3-n3nccn3)C2)oc1Br` [Example 12, Methyl 2-((3R,6R)-1-(2-(2H-1,2,3-Triazol-2-yl)benzoyl)-6-methylpiperidin-3-yl)-5-bromooxazole-4-carboxylate] are 0.03 µM and 0.875 µM. The corresponding values for `Cc1oc([C@@H]2CC[C@@H](C)N(C(=O)c3ccccc3-n3nccn3)C2)nc1C(C)(C)O` [Example 13, (2-(2H-1,2,3-Triazol-2-yl)phenyl)((2R,5R)-5-(4-(2-hydroxypropan-2-yl)-5-methyloxazol-2-yl)-2-methylpiperidin-1-yl)methanone] are 0.0128 µM and 0.815 µM. On the same counts, the results for `C[C@@H]1CC[C@@H](c2nc(C(C)(C)O)c(C3CC3)o2)CN1C(=O)c1ccccc1-n1nccn1` [Example 14, (2-(2H-1,2,3-Triazol-2-yl)phenyl)((2R,5R)-5-(5-cyclopropyl-4-(2-hydroxypropan-2-yl)oxazol-2-yl)-2-methylpiperidin-1-yl)methanone] are 0.019 µM and 0.021 µM. As for `CC(C)c1oc([C@@H]2CC[C@@H](C)N(C(=O)c3ccccc3-n3nccn3)C2)nc1C(C)(C)O` [Example 15, (2-(2H-1,2,3-Triazol-2-yl)phenyl)((2R,5R)-5-(4-(2-hydroxypropan-2-yl)-5-isopropyloxazol-2-yl)-2-methylpiperidin-1-yl)methanone], the IC50 at human orexin-2 receptor worked out at 0.017 µM; at hOX1R (setting [1]), 0.01 µM. On the same counts, the results for `C[C@@H]1CC[C@@H](c2nc(C(C)(C)C)co2)CN1C(=O)c1ccccc1-n1nccn1` [Example 16, (2-(2H-1,2,3-Triazol-2-yl)phenyl)((2R,5R)-5-(4-(tert-butyl)oxazol-2-yl)-2-methylpiperidin-1-yl)methanone] are 0.06 µM and 0.29 µM. Take `C[C@@H]1CC[C@@H](c2nc(-c3ccccc3)co2)CN1C(=O)c1ccccc1-n1nccn1` [Example 17, (2-(2H-1,2,3-Triazol-2-yl)phenyl)((2R,5R)-2-methyl-5-(4-phenyloxazol-2-yl)piperidin-1-yl)methanone]: the IC50 came out at 0.038 µM at human orexin-2 receptor and 0.12 µM on hOX1R (setting [1]). Compound `COc1ccccc1C(=O)N1C[C@H](c2nc(C(C)(C)O)c(C)o2)CC[C@H]1C` [Example 31, ((2R,5R)-5-(4-(2-Hydroxypropan-2-yl)-5-methyloxazol-2-yl)-2-methypiperidin-1-yl)(2-methoxyphenyl)methanone] registered an IC50 on human orexin-2 receptor of 0.08 µM.

`Cc1oc([C@@H]2CC[C@@H](C)N(C(=O)c3cscc3-c3ncccn3)C2)nc1C(C)(C)O` [Example 36]: the IC50 on hOX1R (setting [1]) was greater than 10 µM. The same measure, in the same setting: with `CC[C@](C)(O)c1nc([C@@H]2CC[C@@H](C)N(C(=O)c3ccsc3-n3nccn3)C2)oc1C` [Example 49, (2-(2H-1,2,3-triazol-2-yl)thiophen-3-yl)((2R,5R)-5-(4-((S)-2-hydroxybutan-2-yl)-5-methyloxazol-2-yl)-2-methylpiperidin-1-yl)methanone] the figure was 1.74 µM. At human orexin-2 receptor, `C[C@@H]1CC[C@@H](c2nc(CN(C)C)c(-c3ccccc3)o2)CN1C(=O)c1ccccc1-n1nccn1` [Example 66, (2-(2H-1,2,3-Triazol-2-yl)phenyl)((2R,5R)-5-(4-((dimethylamino)methyl)-5-phenyloxazol-2-yl)-2-methylpiperidin-1-yl)methanone] returned an IC50 of 0.983 µM.

`COC(=O)Cc1nc([C@@H]2CC[C@@H](C)N(C(=O)c3ccccc3-n3nccn3)C2)oc1-c1ccccc1` [Example 67]: the 50% inhibitory concentration (IC50) on hOX1R (setting [1]) stood at 0.093 µM.
